Source: article PMC6163054 (Chembiochem : a European journal of chemical biology, 2018)

Target: Fluc (firefly luciferase) (Photinus pyralis, UniProt P08659)
Experiment: bioluminescence kinetics, luminometer, nonlinear regression
Type: biochemical
Settings: ATP, Mg2+, pH 7.6; text says low millimolar range

Chain of Fluc (firefly luciferase) (P08659 whole entry): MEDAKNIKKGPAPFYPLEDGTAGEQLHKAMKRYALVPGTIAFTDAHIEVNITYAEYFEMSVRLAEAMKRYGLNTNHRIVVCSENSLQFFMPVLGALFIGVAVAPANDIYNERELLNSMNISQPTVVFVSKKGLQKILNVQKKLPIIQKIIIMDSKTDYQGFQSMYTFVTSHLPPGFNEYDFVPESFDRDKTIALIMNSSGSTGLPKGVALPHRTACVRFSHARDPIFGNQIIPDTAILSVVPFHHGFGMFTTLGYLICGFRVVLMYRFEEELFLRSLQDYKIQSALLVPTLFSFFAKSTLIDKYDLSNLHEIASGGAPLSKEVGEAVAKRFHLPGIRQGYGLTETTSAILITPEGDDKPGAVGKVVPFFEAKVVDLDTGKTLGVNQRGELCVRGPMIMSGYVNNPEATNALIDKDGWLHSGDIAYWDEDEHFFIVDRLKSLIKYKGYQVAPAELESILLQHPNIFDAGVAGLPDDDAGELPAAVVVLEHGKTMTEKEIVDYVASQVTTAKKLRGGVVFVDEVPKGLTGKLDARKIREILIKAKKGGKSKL

Row | SMILES | apparent Km
1 | O=C(O)[C@H]1CSC(c2nc3ccc(=O)[nH]c3s2)=N1 [compound 4, (S)-2-(Thiazolo[5,4-b]pyridin-5(4H)-one-2-yl)-4,5-dihydrothiazole-4-carboxylic acid] | The apparent Km values measured for both luciferins were in the low millimolar range
2 | O=C(O)[C@H]1CSC(c2nc3c[nH]c(=O)cc3s2)=N1 [compound 3, (S)-2-(Thiazolo[4,5-c]pyridin-6(5H)-one-2-yl)-4,5-dihydrothiazole-4-carboxylic acid] | The apparent Km values measured for both luciferins were in the low millimolar range
